Reference: patent publication US9309229B2, “Crystalline forms of 5-chloro-N2-(2-isopropoxy-5-methyl-4-piperidin-4-yl-phenyl)-N4-[2-(propane-2-sulfonyl)-phenyl]-pyrimidine-2, 4-diamine” (Novartis AG, priority 2010, dated 2016)
In brackets after ≈: the same amount, converted by molar mass.

How the values were obtained:
Type in all cases: physicochemical
[1] = Solubility of crystalline form A
[2] = Hygroscopicity (moisture uptake at relative humidity)
[3] = Stability of the form in pH 1 (0.1N HCl) solution; settings: pH 1 (0.1N HCl) solution over 72 hour
[4] = pH of 1% suspension in water

solubility ([1]; in water): 0.21 mg/mL (≈ 0.376 mM)
solubility ([1]; organic solvent or mixture, in methanol (organic solvent)): 40 mg/mL (≈ 71.7 mM)
solubility ([1]; pH 1 solution (0.1N HCl), simulated gastric fluid, in pH 1): 11 mg/mL (≈ 19.7 mM)
hygroscopicity ([2]; 84% relative humidity (RH)): relatively non-hygroscopic
moisture uptake ([2]; 93% RH): minor increase in moisture uptake
pH of 1% suspension in water [4]: 6.86
SMILES: Cc1cc(Nc2ncc(Cl)c(Nc3ccccc3S(=O)(=O)C(C)C)n2)c(OC(C)C)cc1C1CCNCC1 [Form A, 5-Chloro-N2-(2-isopropoxy-5-methyl-4-piperidin-4-yl-phenyl)-N4-[2-(propane-2-sulfonyl)-phenyl]-pyrimidine-2,4-diamine]
conversion of form in solution [3]: converted to a hydrochloride salt (non-stoichiometric)
